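Compound exposure: 48 hours, 5 concentrations, 96-well plates. At the TGI there is no net growth.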
Legend:
Assay in all cases: inhibition of tumour cell growth, NCI panel, 48 h
COLO 205 colon = system: COLO 205 colon
DU-145 prostate = system: DU-145 prostate
NCI-H460 lung = system: NCI-H460 lung
OVCAR-8 ovarian = system: OVCAR-8 ovarian
HS 578T breast = system: HS 578T breast
SNB-19 CNS = system: SNB-19 CNS
HL-60(TB) leukemia = system: HL-60(TB) leukemia
SW-620 colon = system: SW-620 colon
HCC-2998 colon = system: HCC-2998 colon
NCI-H23 lung = system: NCI-H23 lung

With `COc1ccc(C(=C2C=CC=C2)c2ccc(OC)cc2)cc1` the TGI (COLO 205 colon) was 43.5 µM, the TGI (DU-145 prostate) was > 100 µM and the TGI (NCI-H460 lung) was 86.7 µM. For the same compound, the TGI (OVCAR-8 ovarian) was > 100 µM, the TGI (HS 578T breast) was 94.4 µM and the TGI (SNB-19 CNS) was 74.8 µM. The TGI (HL-60(TB) leukemia) was > 100 µM, the TGI (SW-620 colon) was > 100 µM and the TGI (HCC-2998 colon) was 42.6 µM. For the same compound, the TGI (NCI-H23 lung) was > 100 µM.

`CCCCOC(=O)Nc1ccc(S(=O)(=O)Nc2ccccc2Cl)cc1` was tested, and the TGI (COLO 205 colon) was 45.2 µM, the TGI (DU-145 prostate) was > 100 µM and the TGI (NCI-H460 lung) was 40.1 µM. The TGI (OVCAR-8 ovarian) was 40 µM, the TGI (HS 578T breast) was 53.8 µM and the TGI (SNB-19 CNS) was 49.8 µM. For the same compound, the TGI (HL-60(TB) leukemia) was 59.5 µM, the TGI (SW-620 colon) was 31.3 µM and the TGI (HCC-2998 colon) was 27.5 µM. The TGI (NCI-H23 lung) was 77.7 µM.

In the case of `O=C(/C=C/c1ccc2c(c1)OCO2)c1ccc(O)cc1`, the TGI (COLO 205 colon) is reported as 31.3 µM, the TGI (DU-145 prostate) is reported as 30.1 µM and the TGI (NCI-H460 lung) is reported as 28.6 µM. For the same compound, the TGI (OVCAR-8 ovarian) was 3.11 µM, the TGI (HS 578T breast) was 34.1 µM and the TGI (SNB-19 CNS) was 30.5 µM. The TGI (HL-60(TB) leukemia) was 28.7 µM, the TGI (SW-620 colon) was 26.3 µM and the TGI (HCC-2998 colon) was 32.1 µM. For the same compound, the TGI (NCI-H23 lung) was 30 µM.

`C[C@]12CCC3C4=C(CCC3C1CCC2=O)C(=O)[C@H]1O[C@H]1C4=O` (stereo not given in full) showed a TGI (COLO 205 colon) of 9.23 µM, a TGI (DU-145 prostate) of 8.41 µM and a TGI (NCI-H460 lung) of 23.9 µM. The TGI (OVCAR-8 ovarian) was 5.59 µM, the TGI (HS 578T breast) was > 30.5 µM and the TGI (SNB-19 CNS) was 30 µM. It also gave a TGI (HL-60(TB) leukemia) of 7.93 µM, a TGI (SW-620 colon) of 4.98 µM and a TGI (HCC-2998 colon) of 3.3 µM. For the same compound, the TGI (NCI-H23 lung) was 8.4 µM.

With `COc1ccc(-n2c(C)nc3ccc(NC(=S)Nc4ccccc4)cc3c2=O)cc1` the TGI (COLO 205 colon) was > 100 µM, the TGI (DU-145 prostate) was > 100 µM and the TGI (NCI-H460 lung) was > 100 µM. The TGI (OVCAR-8 ovarian) was > 100 µM, the TGI (HS 578T breast) was > 100 µM and the TGI (SNB-19 CNS) was > 100 µM. For the same compound, the TGI (HL-60(TB) leukemia) was > 100 µM, the TGI (SW-620 colon) was > 100 µM and the TGI (HCC-2998 colon) was > 100 µM. For the same compound, the TGI (NCI-H23 lung) was > 100 µM.

`Nc1nc2c(c(-c3cccc(Cl)c3)n1)COC/C2=C\c1cccc(Cl)c1` was tested, and the TGI (COLO 205 colon) was > 100 µM, the TGI (DU-145 prostate) was > 100 µM and the TGI (NCI-H460 lung) was > 100 µM. The TGI (OVCAR-8 ovarian) was > 100 µM, the TGI (HS 578T breast) was > 100 µM and the TGI (SNB-19 CNS) was > 100 µM. For the same compound, the TGI (HL-60(TB) leukemia) was > 100 µM, the TGI (SW-620 colon) was > 100 µM and the TGI (HCC-2998 colon) was > 100 µM. The TGI (NCI-H23 lung) was > 100 µM.

In the case of `Cc1ccc(-c2csc(=Nc3ccccc3)n2NC(=O)c2ccncc2)cc1`, the TGI (COLO 205 colon) is reported as 82.5 µM, the TGI (DU-145 prostate) is reported as > 100 µM and the TGI (NCI-H460 lung) is reported as > 100 µM. For the same compound, the TGI (OVCAR-8 ovarian) was > 90.9 µM, the TGI (HS 578T breast) was > 100 µM and the TGI (SNB-19 CNS) was > 100 µM. The TGI (HL-60(TB) leukemia) was > 69.2 µM, the TGI (SW-620 colon) was > 100 µM and the TGI (HCC-2998 colon) was > 100 µM. For the same compound, the TGI (NCI-H23 lung) was > 76.1 µM.

With `Cc1cc(Nc2ccc(S(=O)(=O)O)c3cc(S(=O)(=O)O)cc(S(=O)(=O)O)c23)c2ccccc2n1` the TGI (COLO 205 colon) was > 100 µM, the TGI (DU-145 prostate) was > 100 µM and the TGI (NCI-H460 lung) was > 100 µM. The TGI (OVCAR-8 ovarian) was > 100 µM, the TGI (HS 578T breast) was > 100 µM and the TGI (SNB-19 CNS) was > 100 µM. For the same compound, the TGI (HL-60(TB) leukemia) was > 100 µM, the TGI (SW-620 colon) was > 100 µM and the TGI (HCC-2998 colon) was > 100 µM. For the same compound, the TGI (NCI-H23 lung) was > 100 µM.

`NC1(c2cc3ccccc3s2)CCCC1` was tested, and the TGI (COLO 205 colon) was 43.1 µM, the TGI (DU-145 prostate) was > 100 µM and the TGI (NCI-H460 lung) was > 100 µM. For the same compound, the TGI (OVCAR-8 ovarian) was > 100 µM, the TGI (HS 578T breast) was > 100 µM and the TGI (SNB-19 CNS) was > 100 µM. The TGI (HL-60(TB) leukemia) was > 100 µM, the TGI (SW-620 colon) was > 100 µM and the TGI (HCC-2998 colon) was 46.1 µM. For the same compound, the TGI (NCI-H23 lung) was > 100 µM.

For `Cc1ccccc1C(=N)c1ccccc1Cc1cccc2ccccc12`, the TGI (COLO 205 colon) was 76.9 µM, the TGI (DU-145 prostate) was 42.5 µM and the TGI (NCI-H460 lung) was 38.6 µM. For the same compound, the TGI (OVCAR-8 ovarian) was > 100 µM, the TGI (HS 578T breast) was 26.3 µM and the TGI (SNB-19 CNS) was > 100 µM. For the same compound, the TGI (HL-60(TB) leukemia) was 42.2 µM, the TGI (SW-620 colon) was 66 µM and the TGI (HCC-2998 colon) was 36.7 µM. The TGI (NCI-H23 lung) was > 100 µM.

For `O=C(NCc1ccccc1)c1n[nH][nH]c1=O`, the TGI (COLO 205 colon) was > 100 µM, the TGI (DU-145 prostate) was > 100 µM and the TGI (NCI-H460 lung) was > 100 µM. The TGI (OVCAR-8 ovarian) was > 100 µM, the TGI (HS 578T breast) was > 100 µM and the TGI (SNB-19 CNS) was > 100 µM. The TGI (HL-60(TB) leukemia) was > 100 µM, the TGI (SW-620 colon) was > 100 µM and the TGI (HCC-2998 colon) was > 100 µM. For the same compound, the TGI (NCI-H23 lung) was > 100 µM.

Work on `Cc1cc(-c2nc3ccc(F)cc3s2)ccc1NC(=O)[C@H](C)N` yielded a TGI (COLO 205 colon) of 23.8 µM, a TGI (DU-145 prostate) of 26 µM and a TGI (NCI-H460 lung) of 6.09 µM. It also gave a TGI (OVCAR-8 ovarian) of 27.3 µM, a TGI (HS 578T breast) of 28.5 µM and a TGI (SNB-19 CNS) of 29.6 µM. It also gave a TGI (HL-60(TB) leukemia) of 7.45 µM, a TGI (SW-620 colon) of 15 µM and a TGI (HCC-2998 colon) of 4.5 µM. The TGI (NCI-H23 lung) was 26.1 µM.

For `C=CC1(CC/C(=C\[N+](=O)[O-])c2ccc(OC)c(OC)c2)OCC(C)(C)CO1`, the TGI (COLO 205 colon) was 43.4 µM, the TGI (DU-145 prostate) was 33.1 µM and the TGI (NCI-H460 lung) was 55 µM. It also gave a TGI (OVCAR-8 ovarian) of 36.9 µM, a TGI (HS 578T breast) of 79.4 µM and a TGI (SNB-19 CNS) of 35.7 µM. For the same compound, the TGI (HL-60(TB) leukemia) was 34.1 µM, the TGI (SW-620 colon) was > 100 µM and the TGI (HCC-2998 colon) was 46.2 µM. It also gave a TGI (NCI-H23 lung) of 37 µM.

With `CC(=O)Oc1cccc2c1C(=O)CCCC2` the TGI (COLO 205 colon) was > 100 µM, the TGI (DU-145 prostate) was > 100 µM and the TGI (NCI-H460 lung) was > 100 µM. For the same compound, the TGI (OVCAR-8 ovarian) was > 100 µM, the TGI (HS 578T breast) was > 100 µM and the TGI (SNB-19 CNS) was > 100 µM. The TGI (HL-60(TB) leukemia) was > 100 µM, the TGI (SW-620 colon) was > 100 µM and the TGI (HCC-2998 colon) was > 100 µM. The TGI (NCI-H23 lung) was > 100 µM.

In the case of `Cc1cc(C)nc(NS(=O)(=O)c2ccc(NC(=O)c3ccc4nc5ccccc5c(Nc5ccc(S(N)(=O)=O)cc5)c4c3)cc2)n1`, the TGI (COLO 205 colon) is reported as > 100 µM, the TGI (DU-145 prostate) is reported as > 100 µM and the TGI (NCI-H460 lung) is reported as > 100 µM. The TGI (OVCAR-8 ovarian) was > 100 µM, the TGI (HS 578T breast) was > 100 µM and the TGI (SNB-19 CNS) was > 100 µM. The TGI (HL-60(TB) leukemia) was > 100 µM, the TGI (SW-620 colon) was > 100 µM and the TGI (HCC-2998 colon) was > 100 µM. The TGI (NCI-H23 lung) was > 100 µM.

For `COc1cc(S(=O)(=O)Nc2nc(-c3ccc(N4C(=O)C(CC(=O)O)SC4c4cccs4)cc3)cs2)ccc1Cl` (stereo not given), the TGI (COLO 205 colon) was > 100 µM, the TGI (DU-145 prostate) was > 100 µM and the TGI (NCI-H460 lung) was > 100 µM. The TGI (OVCAR-8 ovarian) was > 100 µM, the TGI (HS 578T breast) was > 100 µM and the TGI (SNB-19 CNS) was > 100 µM. For the same compound, the TGI (HL-60(TB) leukemia) was 74 µM, the TGI (SW-620 colon) was 78.8 µM and the TGI (HCC-2998 colon) was > 100 µM. It also gave a TGI (NCI-H23 lung) of 49 µM.
